Laboratory results taken from US20240246916A1, “7-NITRO-8-HYDROXYQUINOLINE DERIVATIVES, PREPARATION METHOD THEREFORE AND MEDICAL USE THEREOF” (Jiangsu Yahong Meditech Co., Ltd., priority 2021, published 2024).
Values after ≈ are worked out from the molar mass of the structure shown.

Assays:
Assay type in all cases: cell-based
[1] = test system: Bladder cancer cell line UM-UC-3; assay: Inhibitory activity on cancer cells, CellTiter-Glo viability, UM-UC-3; details: Homo sapiens, UMUC3, 72 hours treatment
How it was run: (§1)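 HUVEC seeded at 2000, UM-UC-3 and RM-1 at 3000, LNCaP at 5000 cells/well, each in its own medium, 24 h before dosing. Compounds: 8-point 2.5-fold dilutions from 100 μmol, 72 h at 37 °C, 5% CO2. CellTiter-Glo luminescence; IC50 from growth-inhibition curves.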

[2] = test system: Prostate cancer cell line LNcaP; assay: Inhibitory activity on cancer cells, CellTiter-Glo viability, LNcaP; details: Homo sapiens, 72 hours treatment
How it was run: as §1

[3] = test system: Escherichia coli (carbapenem-resistant clinical isolate; ATCC25922); assay: MIC by micro broth dilution (CLSI), Escherichia coli; details: Escherichia coli; for MIC50 / MIC90: ATCC25922, Clinical strain; for MIC50: read-out: MIC50; for MIC90: read-out: MIC90; for MIC: Standard strain ATCC25922, read-out: MIC
How it was run: (§2)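 Compounds were dissolved in DMSO and tested at 128 to 0.06 mg/L in cation-adjusted Mueller-Hinton broth. Overnight cultures were set to 0.5 McFarland, diluted 100-fold to a final 10^5 CFU/mL, and incubated at 35±2° C for 20 hours in air. Results were interpreted by CLSI 2019 M100 criteria.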

[4] = test system: Endothelial cell line HUVEC; assay: Inhibitory activity on cells, CellTiter-Glo viability, HUVEC; details: Homo sapiens, 72 hours treatment
How it was run: as §1

[5] = test system: Acinetobacter baumannii (carbapenem-resistant clinical isolates; ATCC19606); assay: MIC by micro broth dilution (CLSI), Acinetobacter baumannii; details: for MIC50 / MIC90: ATCC19606, Clinical strain; for MIC50 / MIC90 / MIC: Acinetobacter baumannii; for MIC50: read-out: MIC50; for MIC90: read-out: MIC90; for MIC: Standard strain ATCC19606, read-out: MIC
How it was run: as §2

[6] = test system: Mouse prostate cancer cell line RM1; assay: Inhibitory activity on cancer cells, CellTiter-Glo viability, RM1; details: 72 hours treatment
Protocol: HUVEC (purchased from Allcells Biological Technology (Shanghai) Co., Ltd.); UM-UC-3 (ATCC); LNCaP (ATCC); RM-1 (purchased from Nanjing Cobioer Biosciences Co., Ltd.) (1) On the first day, the cells were seeded in a 96-well plate, and the previous medium was poured off. 5 mL of DPBS was added to wash the cells, and then removed by a pipette and discarded. Then, 1 mL of trypsin (0.25%) was added, and the plate was placed in a cell culture incubator at 37 °C, 5% CO2 for digestion, and taken out after about 2 to 5 minutes. New corresponding medium was added, and pipetted to resuspend the cells evenly, and the cells were then counted with an automated cell counter. Regarding HUVEC, the medium used was endothelial cell complete medium; regarding UM-UC-3, the medium used was 89 v % EMEM+10 v % fetal bovine serum+1 v % penicillin-streptomycin double anti-body; regarding LNcaP, the medium used was 89 v % RPM11640+10 v % fetal bovine serum+1 v % penicillin-streptomycin double anti-body; and regarding RM1, the medium used was 89 v % DMEM+10 v % fetal bovine serum+1 v % penicillin-streptomycin double anti-body. (2) HUVEC cells were seeded in columns 1 to 11 of a 96-well plate (Corning, Cat. No. 3610) at a density of 2000 cells per well in 100 μL of medium, and the medium free of cell was added to the wells of column 12. The other three types of cells were also seeded, wherein UM-UC-3 and RM-1 cells were seeded at a density of 3000 cells per well, and LNCap cells were seeded at a density of 5000 cells per well. Then, the plate was placed in an incubator at 37° C., 5% CO2 for 24 hours. (3) On the second day, the compounds of the present invention and the reference drug nitroxoline (obtained according to the preparation method disclosed in the prior art) were diluted in gradient (2.5 folds, started at 100 μmol) to obtain 8 dose points (there were a total of 8 columns of wells; the first column of wells had the highest concentration, the concentration decreased in turn, and the last column of wells had the lowest concentration). 10 μL of the compound diluted in gradient was added to the 100 μL of cells in column 1 to column 10 with an 8-channel pipette. 10 μL of the corresponding medium containing 0.33 v % DMSO was added to column 11 and column 12. The plate was incubated in an incubator at 37° C., 5% CO2 for 72 hours (note: column 11 was used as MAX well with cells and no compounds; and column 12 was used as MIN well with no cells and no compounds). (4) After treating with the compounds of the present invention for 72 hours, the cell viability detection reagents in the above CellTiter-Glo® assay kit were added to the 96-well plate at 50 μL per well according to the instructions. The plate was shaken on a shaker in the dark for 5 to 10 minutes, and then the cell activity was determined by a multifunctional microplate reader. Finally, the growth inhibition of the compounds of the present invention on the cells was plotted by XLFIT 5.3 software, and the IC50 values of the compounds of the present invention were calculated.

[7] = test system: Staphylococcus aureus (methicillin-resistant and sensitive clinical isolates; ATCC29213); assay: MIC by micro broth dilution (CLSI), Staphylococcus aureus; details: for MIC50 / MIC90: Clinical strain; for MIC50: read-out: MIC50; for MIC90: read-out: MIC90; for MIC: Standard strain ATCC29213, read-out: MIC
How it was run: as §2

Row | SMILES | IC50 [1] [nM] | IC50 [2] [nM] | MIC50 [3] [µg/mL] | MIC90 [3] [µg/mL] | MIC [3] [µg/mL] | IC50 [4] [nM] | MIC50 [5] [µg/mL] | MIC90 [5] [µg/mL] | MIC [5] [µg/mL] | IC50 [6] [nM] | MIC50 [7] [µg/mL] | MIC90 [7] [µg/mL] | MIC [7] [µg/mL] | inhibitory effect against Acinetobacter baumannii compared with the reference drug nitroxoline ([5]; MIC comparison)
1 | CCOc1ccnc2c(O)c([N+](=O)[O-])cc(Cl)c12 [Example 61, 5-Chloro-4-ethoxy-7-nitroquinolin-8-ol] | 5290 | 5220 | > 128 | > 128 | > 128 | 2580 | > 128 | > 128 | > 128 | 4260 | 16 (≈ 59.6 µM) | 32 (≈ 119 µM) | 16 (≈ 59.6 µM) | –
2 | O=[N+]([O-])c1cc(Cl)c2c(C3CCCCC3)ccnc2c1O [Example 64, 5-Chloro-4-cyclohexyl-7-nitroquinolin-8-ol] | 1240 | 220 | > 128 | > 128 | > 128 | 440 | > 128 | > 128 | > 128 | 860 | 0.5 (≈ 1.63 µM) | 1 (≈ 3.26 µM) | 0.5 (≈ 1.63 µM) | –
3 | CC1(C)CCN(c2ccnc3c(O)c([N+](=O)[O-])cc(Cl)c23)CC1 [Example 41, 5-Chloro-4-(4,4-dimethylpiperidin-1-yl)-7-nitroquinolin-8-ol] | 1030 | 480 | > 128 | > 128 | > 128 | 2020 | > 128 | > 128 | > 128 | 2020 | 32 (≈ 95.3 µM) | 32 (≈ 95.3 µM) | 32 (≈ 95.3 µM) | –
4 | CC1CCCN(c2ccnc3c(O)c([N+](=O)[O-])cc(Cl)c23)C1 (centres unmarked) [Example 66, 5-Chloro-4-(3-methylpiperidin-1-yl)-7-nitroquinolin-8-ol] | 5430 | 1360 | > 128 | > 128 | > 128 | 4540 | > 128 | > 128 | > 128 | 4290 | 1 (≈ 3.11 µM) | 1 (≈ 3.11 µM) | 1 (≈ 3.11 µM) | –
5 | COC1CCN(c2ccnc3c(O)c([N+](=O)[O-])cc(Cl)c23)CC1 [Example 38, 5-Chloro-4-(4-methoxypiperidin-1-yl)-7-nitroquinolin-8-ol] | 6720 | 1870 | > 128 | > 128 | 128 (≈ 379 µM) | 2360 | 128 (≈ 379 µM) | 128 (≈ 379 µM) | 128 (≈ 379 µM) | 3000 | 8 (≈ 23.7 µM) | 16 (≈ 47.4 µM) | 8 (≈ 23.7 µM) | –
6 | O=[N+]([O-])c1cc(F)c2c(Cl)ccnc2c1O [Example 68, 4-Chloro-5-fluoro-7-nitroquinolin-8-ol] | 17500 | 5380 | 8 (≈ 33 µM) | 32 (≈ 132 µM) | 8 (≈ 33 µM) | 10000 | 4 (≈ 16.5 µM) | 8 (≈ 33 µM) | 2 (≈ 8.24 µM) | 5190 | 2 (≈ 8.24 µM) | 4 (≈ 16.5 µM) | 4 (≈ 16.5 µM) | comparable to that of the reference drug nitroxoline
7 | COc1ccnc2c(O)c([N+](=O)[O-])cc(Cl)c12 [Example 34, 5-Chloro-4-methoxy-7-nitroquinolin-8-ol] | 14000 | 6780 | 8 (≈ 31.4 µM) | 32 (≈ 126 µM) | 8 (≈ 31.4 µM) | 6440 | 32 (≈ 126 µM) | 32 (≈ 126 µM) | 32 (≈ 126 µM) | 12700 | 4 (≈ 15.7 µM) | 8 (≈ 31.4 µM) | 4 (≈ 15.7 µM) | –
8 | COC(=O)N1CCN(c2ccnc3c(O)c([N+](=O)[O-])cc(Cl)c23)CC1 [Example 31, Methyl 4-(5-chloro-8-hydroxy-7-nitroquinolin-4-yl)-piperazine-1-carboxylate] | 940 | 960 | > 128 | > 128 | > 128 | 1630 | > 128 | > 128 | > 128 | 460 | > 128 | > 128 | > 128 | –
9 | O=[N+]([O-])c1cc(Cl)c2c(Oc3ccccc3)ccnc2c1O [Example 47, 5-Chloro-7-nitro-4-phenoxyquinolin-8-ol] | 2380 | 970 | > 128 | > 128 | > 128 | 1590 | > 128 | > 128 | > 128 | 6070 | 16 (≈ 50.5 µM) | 32 (≈ 101 µM) | 32 (≈ 101 µM) | –
10 | CN(C)C(=O)N1CCN(c2ccnc3c(O)c([N+](=O)[O-])ccc23)CC1 [Example 25, 4-(8-Hydroxy-7-nitroquinolin-4-yl)-N,N-dimethylpiperazine-1-carboxamide] | 44500 | 32400 | 128 (≈ 371 µM) | > 128 | 32 (≈ 92.7 µM) | 47600 | 128 (≈ 371 µM) | > 128 | > 128 | 47200 | 16 (≈ 46.3 µM) | 16 (≈ 46.3 µM) | > 128 | –
11 | CN1CCN(c2ccnc3c(O)c([N+](=O)[O-])cc(Cl)c23)CC1 [Example 40] | 24600 | 12600 | 128 (≈ 397 µM) | > 128 | 64 (≈ 198 µM) | 19100 | 128 (≈ 397 µM) | > 128 | > 128 | 11500 | 32 (≈ 99.1 µM) | 32 (≈ 99.1 µM) | 32 (≈ 99.1 µM) | –
12 | Cl.O=[N+]([O-])c1cc(Cl)c2c(-c3ccccc3)ccnc2c1O [Example 51, 5-chloro-7-nitro-4-phenylquinolin-8-ol hydrochloride] | 2170 | 1510 | > 128 | > 128 | > 128 | 1710 | > 128 | > 128 | > 128 | 4250 | 1 | 2 | 1 | –
13 | O=[N+]([O-])c1ccc2c(C3CCCCC3)ccnc2c1O [Example 32, 4-Cyclohexyl-7-nitroquinolin-8-ol] | 1090 | 230 | 64 (≈ 235 µM) | 64 (≈ 235 µM) | 64 (≈ 235 µM) | 890 | 32 (≈ 118 µM) | 32 (≈ 118 µM) | 32 (≈ 118 µM) | 600 | 1 (≈ 3.67 µM) | 1 (≈ 3.67 µM) | 1 (≈ 3.67 µM) | –
